Experimental data from patent US9989531B2, “Composition comprising a cell sample from a subject with scoliosis and a reagent for detecting PTPμ or PIPK1y” (Chu Sainte-Justine, priority 2013, dated 2018).

Assays:
[1] = tested on: α2 adrenergic receptor (α2-ADR); assay: GiPCR signaling by cellular dielectric spectroscopy (CDS), oxymethazolin stimulation of osteoblasts; type: cell-based, mouse; conditions: osteoblasts from bipedal WT and PTPμ−/− mice, different concentrations (FIG. 3)
Experimental: (§1) The signaling capacity of G proteins was assessed from osteoblast cultures using cellular dielectric spectroscopy (CDS) performed on a CellKey™ apparatus (MDS Sciex, San Francisco, Calif.), as described in Akoume, et al., 2010 and WO 2010/040234, 2010 to Moreau et al. To assess GiPCR cell signaling, specific agonists that bind to GiPCR and regulate Gi proteins were used: Apelin-17, Oxymethazolin and Somatostatin (Som) (Tocris Bioscience, Canada).
To examine the impact of PTPμ deficiency on this defect, osteoblasts from bipedal WT and PTPμ^−/− mice were screened for their response to three GiPCR selective agonists identified in (FIG. 2). In agreement with previous results (Akoume et al Spine 2010), all three compounds evoked typical CDS response profiles of GiPCR in WT osteoblasts. Consistent with Gi coupling for their cognate receptors in these cells, response to each of the three tested compounds was blocked by pre-treatment with PTX (FIGS. 2 A-F). Similar results were obtained with PTPμ^−/− osteoblasts (FIGS. 2 G-L). […] However, in each case, osteoblasts from PTPμ^−/− mice were less responsive than those from WT mice, but EC50 values were similar in both groups (FIGS. 3 A-C).

Apelin receptor (APJR) = target: T1, Apelin receptor (APJR) (Mus musculus, UniProt Q9WV08); assay: GiPCR signaling by cellular dielectric spectroscopy (CDS), apelin-17 stimulation of osteoblasts; type: cell-based; conditions: osteoblasts from bipedal WT and PTPμ−/− mice, different concentrations (FIG. 3)
T1 construct: The signaling capacity of G proteins was assessed from osteoblast cultures using cellular dielectric spectroscopy (CDS); endogenous in cells; host or cells: primary spine osteoblasts from bipedal C57Bl/6j WT and PTPμ-/- mice
T1 sequence (Q9WV08 1-377): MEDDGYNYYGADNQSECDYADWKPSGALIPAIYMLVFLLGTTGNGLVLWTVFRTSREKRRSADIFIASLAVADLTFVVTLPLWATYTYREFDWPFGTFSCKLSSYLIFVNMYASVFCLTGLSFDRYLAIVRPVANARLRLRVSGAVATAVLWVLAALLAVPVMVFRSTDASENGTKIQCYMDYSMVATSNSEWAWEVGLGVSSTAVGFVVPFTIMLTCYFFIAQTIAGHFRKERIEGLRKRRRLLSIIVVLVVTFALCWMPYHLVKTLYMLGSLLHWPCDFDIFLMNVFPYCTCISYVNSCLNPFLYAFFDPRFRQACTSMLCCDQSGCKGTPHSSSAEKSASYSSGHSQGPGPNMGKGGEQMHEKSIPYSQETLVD

OPN = target: T2, OPN (Mus musculus, UniProt P10923); assay: OPN knockdown by siRNA in osteoblasts, response to GiPCR stimulation (CDS); type: cell-based; conditions: WT and PTPμ−/− osteoblasts (FIGS. 3 F-H)
T2 construct: endogenous in cells; host or cells: primary spine osteoblasts from bipedal C57Bl/6j WT and PTPμ-/- mice, transfected with OPN siRNA
T2 sequence (P10923 17-294): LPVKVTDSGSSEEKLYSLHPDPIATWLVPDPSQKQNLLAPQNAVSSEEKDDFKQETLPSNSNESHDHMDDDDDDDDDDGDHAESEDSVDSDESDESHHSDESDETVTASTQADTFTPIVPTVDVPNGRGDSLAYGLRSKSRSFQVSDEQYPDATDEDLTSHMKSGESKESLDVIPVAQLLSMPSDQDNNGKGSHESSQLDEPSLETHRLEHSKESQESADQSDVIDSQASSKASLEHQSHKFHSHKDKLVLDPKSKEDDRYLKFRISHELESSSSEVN
Experimental: as §1
(§2) Primary osteoblast cell cultures from C57BI/6j WT and C57B/6j PTPμ^−/− were cultured (as described above). Lipofectamine™ RNAiMAX (Invitrogen) was applied for siRNA transfection according to the manufacturer's instructions. The sequence of RNA oligo used for the knockdown of OPN is ([…] (SEQ ID NO: 25)). The cells were harvested for RNA extraction after 48 hrs. The same procedure was followed for phosphatidylinositol-phosphate kinase type I gamma (PIPK1γ). The sequence of RNA oligo used for the knockdown of PIPK1γ is ([…] (SEQ ID NO: 26)).
To relate these findings to the OPN action, the small interference RNA (siRNA) approach was used to knockdown the expression of OPN in WT and PTPμ^−/− osteoblasts.

G αi proteins = assay: Pertussis toxin pre-treatment of osteoblasts before GiPCR agonist stimulation (CDS); type: cell-based, mouse; conditions: osteoblasts from bipedal WT and PTPμ−/− mice; agonists oxymethazolin, somatostatin, apelin-17 (FIG. 2)
Text: Furthermore, Pertussis toxin (PTX) (Sigma Aldrich, Canada) was used to determine if the effect of the agonists was related to G αi proteins.

GiPCR signaling = assay: Exogenous recombinant OPN treatment of osteoblasts prior to GiPCR stimulation (CDS); type: cell-based, mouse; conditions: WT and PTPμ−/− osteoblasts, varying concentrations of rOPN (FIGS. 4 A-C)
Experimental: as §1
WT and PTPμ^−/− osteoblasts were treated with varying concentrations of exogenous recombinant OPN (rOPN) prior to GiPCR stimulation with agonists identified in FIGS. 4 A-C.

PIPK1γ = target: T3, PIPK1γ (Mus musculus, UniProt O70161); assay: PIPK1γ knockdown by siRNA in osteoblasts, response to somatostatin stimulation (CDS); type: cell-based; conditions: varying concentrations of somatostatin, vs scrb (FIG. 6H)
T3 construct: endogenous in cells; host or cells: primary spine osteoblasts from bipedal C57Bl/6j WT and PTPμ-/- mice
T3 sequence (O70161 whole entry): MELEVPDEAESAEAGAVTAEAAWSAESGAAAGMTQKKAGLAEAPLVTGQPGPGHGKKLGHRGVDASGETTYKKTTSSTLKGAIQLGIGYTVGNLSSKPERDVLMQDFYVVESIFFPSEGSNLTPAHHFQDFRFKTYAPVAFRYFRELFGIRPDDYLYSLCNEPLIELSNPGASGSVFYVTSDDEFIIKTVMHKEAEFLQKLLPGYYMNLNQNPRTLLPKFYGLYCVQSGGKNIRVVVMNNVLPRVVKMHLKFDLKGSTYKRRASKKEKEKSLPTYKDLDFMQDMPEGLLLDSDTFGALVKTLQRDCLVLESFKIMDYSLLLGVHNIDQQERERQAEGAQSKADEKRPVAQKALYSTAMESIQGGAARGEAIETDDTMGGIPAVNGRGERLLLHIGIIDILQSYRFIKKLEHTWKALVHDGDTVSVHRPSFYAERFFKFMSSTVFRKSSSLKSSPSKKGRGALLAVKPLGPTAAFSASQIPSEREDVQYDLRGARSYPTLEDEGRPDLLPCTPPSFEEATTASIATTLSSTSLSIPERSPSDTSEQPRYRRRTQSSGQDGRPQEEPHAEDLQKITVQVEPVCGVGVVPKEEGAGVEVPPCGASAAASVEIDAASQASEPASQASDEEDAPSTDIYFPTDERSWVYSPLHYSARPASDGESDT
Experimental: as §1, §2
To further assess the implication of PIPK1γ in the mechanism of action behind PTPμ deficiency, a SiRNA approach was used to knockdown the expression of PIPK1γ in WT and PTPμ^−/− osteoblasts prior to initiating GiPCR signaling with somatostatin stimulation. Efficiency of siRNA in WT and PTPμ^−/− osteoblasts was confirmed by qPCR and Western blot analysis (FIGS. 6 B and C). […]

## Cc1cc(C(C)(C)C)c(O)c(C)c1CC1=NCCN1 [oxymethazoin, Oxymethazolin]
[1]
  CDS response to agonist: increased response in a concentration-dependent manner

## Apelin-17
Apelin receptor (APJR)
  CDS response to agonist: increased response in a concentration-dependent manner

## OPN siRNA: RNA oligo used for the knockdown of OPN: CCACAGCCACAAGCAGUCCAGAUUA (SEQ ID NO: 25) (CCACAGCCACAAGCAGUCCAGAUUA; listed as RNA, chemistry not given here)
OPN
  response to GiPCR stimulation after deletion of OPN: enhanced response to GiPCR stimulation

## Pertussis toxin [PTX]
G αi proteins
  effect of pre-treatment on Gi coupling of agonists to their cognate receptors: blocked the Gi coupling

## rOPN: exogenous recombinant OPN (osteopontin)
GiPCR signaling
  integrated response to GiPCR stimulation: decrease in the integrated response in a concentration-dependent manner

## siPIPK1: RNA oligo used for the knockdown of PIPK1γ: CCUCCACAUCGGGAUUGAUAUU (SEQ ID NO: 26) (CCUCCACAUCGGGAUUGAUAUU; listed as RNA, chemistry not given here)
PIPK1γ; WT osteoblasts
  response to somatostatin stimulation after depletion of PIPK1γ: same response
PIPK1γ; osteoblasts from PTPμ deficiency mice
  response to somatostatin stimulation after depletion of PIPK1γ: enhanced response to somatostatin stimulation
